Experimental findings from ChEMBL document CHEMBL1212696, “Multienzyme docking in hybrid megasynthetases” (Nat Chem Biol, 2008) are described below.

The Kd is the equilibrium constant for the complex coming apart. A low value points to tighter binding.

Assay [1] is described as follows: Binding affinity to wild type Angiococcus disciformis PKS/NRPS expressed in Escherichia coli BL21 (DE3) by surface plasmon resonance assay.
The nature of assay [2]: Binding affinity to wild type Angiococcus disciformis PKS/NRPS R27A mutant expressed in Escherichia coli BL21 (DE3) by surface plasmon resonance assay. (In general: Surface plasmon resonance follows binding to a sensor surface in real time, without labels.)
Assay [3] in a line: Binding affinity to wild type Angiococcus disciformis PKS/NRPS R27A/R29A mutant expressed in Escherichia coli BL21 (DE3) by surface plasmon resonance assay.
Assay [4] can be described thus: Binding affinity to wild type Angiococcus disciformis PKS/NRPS R20A/R29A mutant expressed in Escherichia coli BL21 (DE3) by surface plasmon resonance assay.
A short description of assay [5]: Binding affinity to wild type Angiococcus disciformis PKS/NRPS R29A mutant expressed in Escherichia coli BL21 (DE3) by surface plasmon resonance assay.
Assay [6] is described as follows: Binding affinity to wild type Angiococcus disciformis PKS/NRPS expressed in Escherichia coli BL21 (DE3) by isothermal titration calorimetry. (In general: ITC needs no label: the signal is the heat of the interaction.)
The nature of assay [7]: Binding affinity to wild type Angiococcus disciformis PKS/NRPS R20A/R27A mutant expressed in Escherichia coli BL21 (DE3) by surface plasmon resonance assay.
Assay [8] is described as follows: Binding affinity to wild type Angiococcus disciformis PKS/NRPS R20A mutant expressed in Escherichia coli BL21 (DE3) by surface plasmon resonance assay.

As for `CCCC(=O)OCN(C(=O)[C@@H](NC(=O)[C@H]1CCCCN1C)[C@@H](C)CC)[C@H](C[C@@H](OC(C)=O)c1nc(C(=O)N[C@@H](Cc2ccc(O)cc2)C[C@H](C)C(=O)O)cs1)C(C)C` [TUBULYSIN B], the Kd in assay [1] was 46 µM; in assay [2] it was 121 µM; in assay [3], 282 µM; in assay [4], 596 µM; in assay [5] it was 453 µM; in assay [6] it was 47 µM. Further, the Kd was determined as 114 µM in assay [7] and 59 µM in assay [8].
